What all share (type): biochemical
For one assay, the target named is PAK2 (Homo sapiens, UniProt Q13177). Briefly: Z'Lyte fluorescence-based (FRET) PAK kinase assay, PAK2. The settings on record: Table 1 of Example 100; 75 μM ATP. How it is done: (§1) A fluorescence-based assay format is used to determine IC50 values of test compounds in vitro. Purified PAK kinase is incubated with ATP, and a test compound at various concentrations and a substrate peptide containing two fluorophores. In a second step, the reaction mix is incubated with a site-specific protease that cleaves non-phosphorylated bat not phosphorylated substrate peptide, disrupting the FRET signal generated by the two fluorophores in the cleaved peptide (Z′Lyte™ Kinase assay platform; Life Technologies).
PAK2, sequence (Q13177 whole entry): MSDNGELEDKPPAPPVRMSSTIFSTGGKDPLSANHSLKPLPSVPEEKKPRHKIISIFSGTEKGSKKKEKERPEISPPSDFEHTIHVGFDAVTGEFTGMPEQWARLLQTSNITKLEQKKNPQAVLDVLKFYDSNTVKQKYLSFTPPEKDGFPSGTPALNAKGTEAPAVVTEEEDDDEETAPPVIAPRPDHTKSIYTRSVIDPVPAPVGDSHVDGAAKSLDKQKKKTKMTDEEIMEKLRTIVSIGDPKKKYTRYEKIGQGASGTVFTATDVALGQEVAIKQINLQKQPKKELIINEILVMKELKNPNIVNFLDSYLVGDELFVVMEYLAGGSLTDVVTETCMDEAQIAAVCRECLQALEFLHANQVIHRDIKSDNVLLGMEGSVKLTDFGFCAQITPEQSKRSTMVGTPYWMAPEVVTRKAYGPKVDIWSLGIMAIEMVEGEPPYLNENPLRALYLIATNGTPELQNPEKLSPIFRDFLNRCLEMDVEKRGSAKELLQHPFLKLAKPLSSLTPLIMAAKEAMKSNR
(§2) Reagents: 50 mM HEPES, pH 7.5; 0.01% BRIJ-35; […]; 1 mM EGTA, 2 uM substrate peptide Ser/Thr20 (proprietary Life Technologies Sequence), PAK enzyme [2.42-30.8 ng for PAK1, 0.29-6 ng for PAK2, 1.5-20 ng for PAK3 and 0.1-0.86 ng for PAK4; actual enzyme amounts depend on lot activity of the enzyme preparation]
(§3) Test compounds are dissolved in DMSO at various concentrations; the final DMSO concentration in the assay reaction is 1%.
(§4) ATP concentration at […] apparent is used in the assay [50 ┌M ATP for PAK1 assay, 75 ┌M ATP for PAK2 assay, 100 μM ATP for PAK3 assay, 5 μM ATP for PAK4 assay] in a total assay volume of 10 μl. Assay reactions are incubated at room temperature for 1 hr. Following the kinase reaction, 5 μl of 1:256 dilution of development solution A (Life Technologies) is added and the reaction mix is incubated for an additional 1 hr at room temperature.
(§5) Plates are analyzed in a standard fluorescence plate reader (Tecan or equivalent) using an excitation wavelength of 400 nn and emission wavelengths of 445 nm and 520 nm.
(§6) Inhibition of kinase reaction is determined by emission ratio=emission@445 nm/emission@520 nm
(§7) A fluorescence-based assay format is used to determine IC50 values of test compounds in vitro. Purified PAK kinase is incubated with ATP, and a test compound at various concentrations and a substrate peptide containing two fluorophores. In a second step, the reaction mix is incubated with a site-specific protease that cleaves non-phosphorylated but not phosphorylated substrate peptide, disrupting the FRET signal generated by the two fluorophores in the cleaved peptide (Z'Lyte™ Kinase assay platform Life Technologies).
(§8) Reagents: 50 mM HEPES, pH 7.5; 0.01% BRIJ-35; 10 mM MgCl2; 1 mM EGTA, 2 uM substrate peptide Ser/Thr20 (proprietary Life Technologies Sequence), PAK enzyme [2.42-30.8 ng for PAK1, 0.29-6 ng for PAK2, 1.5-20 ng for PAK3 and 0.1-0.86 ng for PAK4; actual enzyme amounts depend on lot activity of the enzyme preparation]
(§9) ATP concentration at Km apparent is used in the assay [50 μMATP for PAK1 assay, 75 µM ATP for PAK2 assay, 100 μM ATP for PAK3 assay, 5 μM ATP for PAK4 assay] in a total assay volume of […] Assay reactions are incubated at room temperature for 1 hr. Following the kinase reaction. […] of 1:256 dilution of development solution A (Life Technologies) is added and the reaction mix is incubated for an additional 1 hr at room temperature.
(§10) Plates are analyzed in a standard fluorescence plate reader (Teem or equivalent) using an excitation wavelength of 400 nm and emission wavelengths of 445 nm and 520 nm.

The target in the next assay is PAK4 (Homo sapiens, UniProt O96013). Nature of the assay: Z'Lyte fluorescence-based (FRET) PAK kinase assay, PAK4. The settings on record: 5 μM ATP. How it is done:
as §1, §2, §3, §4, §5, §6, §7, §8, §9, §10

The target of the next assay is PAK1 (Homo sapiens, UniProt Q13153). Nature of the assay: Z'Lyte fluorescence-based (FRET) PAK kinase assay, PAK1. As to conditions: 50 μM ATP. The method, then:
as §1, §2, §3, §4, §5, §6, §7, §8, §9, §10

[1] abbreviates: Table 1 of Example 29 (own compound numbering).

A value given as a limit tells only on which side of the number the result lay.

A word on the IC50: it is the concentration that gives 50% inhibition. The low end stands for greater potency, the high end for weaker potency.

PAK4, sequence (O96013 whole entry): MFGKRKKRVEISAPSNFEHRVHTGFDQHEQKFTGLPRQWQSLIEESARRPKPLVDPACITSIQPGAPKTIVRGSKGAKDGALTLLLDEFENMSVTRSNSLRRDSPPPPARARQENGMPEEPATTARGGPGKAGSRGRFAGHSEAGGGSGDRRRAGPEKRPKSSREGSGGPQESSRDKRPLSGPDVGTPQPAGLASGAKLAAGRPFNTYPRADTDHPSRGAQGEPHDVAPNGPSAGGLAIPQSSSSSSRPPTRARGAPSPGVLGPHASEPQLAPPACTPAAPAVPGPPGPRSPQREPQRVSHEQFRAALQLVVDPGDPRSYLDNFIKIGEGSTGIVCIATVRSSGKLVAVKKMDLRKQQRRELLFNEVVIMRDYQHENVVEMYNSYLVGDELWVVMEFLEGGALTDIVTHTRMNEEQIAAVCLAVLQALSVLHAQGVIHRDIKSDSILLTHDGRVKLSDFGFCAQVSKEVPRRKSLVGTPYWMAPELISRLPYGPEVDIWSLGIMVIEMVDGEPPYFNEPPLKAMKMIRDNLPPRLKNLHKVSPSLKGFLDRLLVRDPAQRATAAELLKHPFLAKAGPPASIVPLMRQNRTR
PAK1, sequence (Q13153 whole entry): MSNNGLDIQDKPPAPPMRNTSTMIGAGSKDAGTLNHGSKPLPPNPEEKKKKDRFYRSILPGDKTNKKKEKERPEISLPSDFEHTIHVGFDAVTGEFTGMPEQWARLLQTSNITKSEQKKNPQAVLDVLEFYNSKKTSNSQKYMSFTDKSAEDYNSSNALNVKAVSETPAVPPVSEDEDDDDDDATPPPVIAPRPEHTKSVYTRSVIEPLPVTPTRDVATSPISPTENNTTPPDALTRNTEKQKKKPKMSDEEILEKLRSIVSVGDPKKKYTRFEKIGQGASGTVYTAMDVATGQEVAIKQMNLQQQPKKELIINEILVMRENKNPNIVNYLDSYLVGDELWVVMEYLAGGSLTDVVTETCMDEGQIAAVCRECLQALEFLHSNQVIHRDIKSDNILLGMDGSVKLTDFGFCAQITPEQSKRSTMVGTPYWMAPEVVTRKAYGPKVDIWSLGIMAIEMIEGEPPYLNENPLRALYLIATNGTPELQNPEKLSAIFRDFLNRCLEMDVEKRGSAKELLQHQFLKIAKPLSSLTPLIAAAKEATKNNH

`O=c1ccc2cnc(Nc3ccc(N4CCOCC4)cc3)nc2n1C1CCCC1` [Compound 2]: the IC50 on PAK2 was above 10 µM; at PAK4 (Table 1 of Example 100), 1 to 10 µM; on PAK1 (Table 1 of Example 100), above 10 µM.

For the compound `CN(C)c1ccc(Nc2ncc3ccc(=O)n(C4CCCC4)c3n2)cc1` [Compound 3], the IC50 against PAK2 was above 10 µM; against PAK4 (Table 1 of Example 100), 1 to 10 µM; at PAK1 (Table 1 of Example 100), above 10 µM.

Consider `CN(C)CCNc1ccc(Nc2ncc3ccc(=O)n(C4CCCC4)c3n2)cc1` [Compound 4], for which the IC50 at PAK2, at PAK4 (Table 1 of Example 100) and against PAK1 (Table 1 of Example 100) was 1 to 10 µM each time.

`CN1CCN(c2ccc(Nc3ncc4ccc(=O)n(Cc5ccccc5)c4n3)cc2)CC1` [Compound 26] registered a half-inhibitory concentration (IC50) against PAK2 of 1 to 10 µM.

Regarding `CN1CCN(c2ccc(Nc3ncc4ccc(=O)n(Cc5cccc(F)c5)c4n3)cc2)CC1` [Compound 27], the IC50 on PAK2, on PAK4 (Table 1 of Example 100) and on PAK1 (Table 1 of Example 100) was 1 to 10 µM each time.

As for `CN1CCN(c2ccc(Nc3ncc4ccc(=O)n(Cc5ccc(F)cc5)c4n3)cc2)CC1` [Compound 28], the concentration for half-maximal inhibition (IC50) was above 10 µM at PAK2, above 10 µM against PAK4 (Table 1 of Example 100) and 1 to 10 µM on PAK1 (Table 1 of Example 100).

Regarding `COc1ccc(Cn2c(=O)ccc3cnc(Nc4ccc(N5CCN(C)CC5)cc4)nc32)cc1` [Compound 29], the half-maximal inhibitory concentration (IC50) on PAK2, against PAK4 (Table 1 of Example 100) and on PAK1 (Table 1 of Example 100) was above 10 µM throughout.

Consider `CN1CCN(c2ccc(Nc3ncc4ccc(=O)n(Cc5ccc(Cl)cc5)c4n3)cc2)CC1` [Compound 30], for which the half-maximal inhibitory concentration (IC50) on PAK2 was above 10 µM; at PAK4 (Table 1 of Example 100), above 10 µM; against PAK1 (Table 1 of Example 100) it was 1 to 10 µM.

Take `CN1CCN(c2ccc(Nc3ncc4ccc(=O)n(C5CCCC5)c4n3)cc2)CC1` [compound 57]: the 50% inhibitory concentration (IC50) was 1 to 10 µM at PAK4 (setting [1]) and below 1 µM at PAK1 (setting [1]).

`O=c1ccc2cnc(Nc3ccc(N4CCOCC4)cc3)nc2n1C1CCCC1` [compound 58]: the figures for the IC50 against PAK4 (setting [1]) and against PAK1 (setting [1]) were 1 to 10 µM and above 10 µM, respectively.

With `CN(C)c1ccc(Nc2ncc3ccc(=O)n(C4CCCC4)c3n2)cc1` [compound 59], the values for the IC50 on PAK4 (setting [1]) and against PAK1 (setting [1]) were 1 to 10 µM and above 10 µM, respectively.

Consider `CN(C)CCNc1ccc(Nc2ncc3ccc(=O)n(C4CCCC4)c3n2)cc1` [compound 60], for which the concentration for half-maximal inhibition (IC50) against PAK4 (setting [1]) and against PAK1 (setting [1]) was 1 to 10 µM throughout.

For `CN1CCN(c2ccc(Nc3ncc4ccc(=O)n(C5CCc6ccccc65)c4n3)cc2)CC1` (centres unmarked) [compound 62], the half-inhibitory concentration (IC50) was 1 to 10 µM on PAK4 (setting [1]) and below 1 µM against PAK1 (setting [1]).

On to `O=c1ccc2cnc(Nc3ccc(NC4CCCNC4)cc3)nc2n1Cc1ccccc1C(F)(F)F` (centres unmarked) [compound 63], for which the IC50 at PAK4 (setting [1]) and at PAK1 (setting [1]) was below 1 µM throughout.

On to `O=c1ccc2cnc(Nc3ccc(NC4CCNCC4)cc3)nc2n1Cc1ccccc1C(F)(F)F` [compound 64], for which the IC50 at PAK4 (setting [1]) and against PAK1 (setting [1]) was below 1 µM throughout.

On to `CN1CCN(c2ccc(Nc3ncc4ccc(=O)n([C@@H]5CCCc6ccccc65)c4n3)cc2)CC1` [compound 66], for which the IC50 on PAK4 (setting [1]) and against PAK1 (setting [1]) was 1 to 10 µM each time.

As to `CN1CCN(c2ccc(Nc3ncc4ccc(=O)n(C5CCCc6ccccc65)c4n3)cc2)CC1` (centres unmarked) [compound 67], the IC50 against PAK4 (setting [1]) is 1 to 10 µM; at PAK1 (setting [1]) it was below 1 µM.

For `O=c1ccc2cnc(Nc3ccc(OC4CCNCC4)cc3)nc2n1Cc1ccccc1C(F)(F)F` [compound 68], the concentration for half-maximal inhibition (IC50) on PAK4 (setting [1]) and against PAK1 (setting [1]) was below 1 µM in each case.

As for `O=c1ccc2cnc(Nc3ccc(OC4CCCNC4)cc3)nc2n1Cc1ccccc1C(F)(F)F` (centres unmarked) [compound 70], the IC50 on PAK4 (setting [1]) and at PAK1 (setting [1]) was below 1 µM throughout.

Regarding `CN1CCN(c2ccc(Nc3ncc4ccc(=O)n(C5CCOc6ccccc65)c4n3)cc2)CC1` (centres unmarked) [compound 71], the half-maximal inhibitory concentration (IC50) at PAK4 (setting [1]) and against PAK1 (setting [1]) was 1 to 10 µM in each case.

For `CN(C)CC(c1ccccc1)n1c(=O)ccc2cnc(Nc3ccc(N4CCOCC4)cc3)nc21` (centres unmarked) [compound 72], the IC50 on PAK4 (setting [1]) and at PAK1 (setting [1]) was above 10 µM throughout.

Consider `CN1CCN(c2ccc(Nc3ncc4ccc(=O)n(C5Cc6ccccc6C5)c4n3)cc2)CC1` [compound 73], for which the half-maximal inhibitory concentration (IC50) against PAK4 (setting [1]) and on PAK1 (setting [1]) was below 1 µM in each case.

`CN1CCN(c2ccc(Nc3ncc4ccc(=O)n(C5CCc6ccccc6C5)c4n3)cc2)CC1` (centres unmarked) [compound 74]: the half-maximal inhibitory concentration (IC50) on PAK4 (setting [1]) and against PAK1 (setting [1]) was below 1 µM throughout.

As for `CN(C)CC(c1ccccc1)n1c(=O)ccc2cnc(Nc3ccc(N4CCN(C)CC4)cc3)nc21` (centres unmarked) [compound 75], the IC50 against PAK4 (setting [1]) and against PAK1 (setting [1]) was above 10 µM each time.

Regarding `O=c1ccc2cnc(Nc3ccc(N4CCNCC4)c(F)c3)nc2n1C1Cc2ccccc2C1` [compound 77], the 50% inhibitory concentration (IC50) on PAK4 (setting [1]) and against PAK1 (setting [1]) was below 1 µM each time.

For the compound `O=c1ccc2cnc(Nc3ccc(N4CCNCC4)c(F)c3)nc2n1C1CCc2ccccc2C1` (centres unmarked) [compound 78], the IC50 on PAK4 (setting [1]) and at PAK1 (setting [1]) was below 1 µM throughout.

For the compound `CN1CCN(c2ccc(Nc3ncc4ccc(=O)n(Cc5ccc(F)cc5)c4n3)cc2)CC1` [compound 82], the IC50 was above 10 µM on PAK4 (setting [1]) and 1 to 10 µM at PAK1 (setting [1]).

For the compound `COc1ccc(Cn2c(=O)ccc3cnc(Nc4ccc(N5CCN(C)CC5)cc4)nc32)cc1` [compound 83], the half-inhibitory concentration (IC50) at PAK4 (setting [1]) and against PAK1 (setting [1]) was above 10 µM throughout.

For the compound `CN1CCN(c2ccc(Nc3ncc4ccc(=O)n(Cc5ccc(Cl)cc5)c4n3)cc2)CC1` [compound 84], the half-maximal inhibitory concentration (IC50) against PAK4 (setting [1]) is above 10 µM; on PAK1 (setting [1]) it was 1 to 10 µM.

Take `CN1CCN(c2ccc(Nc3ncc4ccc(=O)n(Cc5ccccc5Cl)c4n3)cc2)CC1` [compound 85]: the half-inhibitory concentration (IC50) on PAK4 (setting [1]) is 1 to 10 µM; against PAK1 (setting [1]), below 1 µM.

As to `COc1ccccc1Cn1c(=O)ccc2cnc(Nc3ccc(N4CCN(C)CC4)cc3)nc21` [compound 88], the half-inhibitory concentration (IC50) against PAK4 (setting [1]) is 1 to 10 µM; at PAK1 (setting [1]) it was below 1 µM.

As to `CN1CCN(c2ccc(Nc3ncc4ccc(=O)n(Cc5ccccc5F)c4n3)cc2)CC1` [compound 89], the IC50 against PAK4 (setting [1]) and against PAK1 (setting [1]) was 1 to 10 µM in each case.

With `CN1CCN(c2ccc(Nc3ncc4ccc(=O)n(Cc5ccccn5)c4n3)cc2)CC1` [compound 90], the half-maximal inhibitory concentration (IC50) at PAK4 (setting [1]) and against PAK1 (setting [1]) was 1 to 10 µM throughout.

For the compound `CN1CCN(c2ccc(Nc3ncc4ccc(=O)n(Cc5ccncc5)c4n3)cc2)CC1` [compound 91], the IC50 on PAK4 (setting [1]) was above 10 µM; on PAK1 (setting [1]), 1 to 10 µM.

For `CN1CCN(c2ccc(Nc3ncc4ccc(=O)n(Cc5cccnc5)c4n3)cc2)CC1` [compound 92], the 50% inhibitory concentration (IC50) against PAK4 (setting [1]) is above 10 µM; at PAK1 (setting [1]), 1 to 10 µM.

Consider `Cc1ccccc1Cn1c(=O)ccc2cnc(Nc3ccc(N4CCN(C)CC4)cc3)nc21` [compound 93], for which, on PAK4 (setting [1]), the half-inhibitory concentration (IC50) was in the range of 1 to 10 µM.

For `CN1CCN(c2ccc(Nc3ncc4ccc(=O)n(Cc5ccccc5C#N)c4n3)cc2)CC1` [compound 94], the results for the IC50 on PAK4 (setting [1]) and at PAK1 (setting [1]) were 1 to 10 µM and below 1 µM, respectively.

`CN1CCN(c2ccc(Nc3ncc4ccc(=O)n(Cc5ccccc5OC(F)(F)F)c4n3)cc2)CC1` [compound 95]: the concentration for half-maximal inhibition (IC50) is 1 to 10 µM against PAK4 (setting [1]) and below 1 µM against PAK1 (setting [1]).

For the compound `CN1CCN(c2ccc(Nc3ncc4ccc(=O)n(Cc5ccccc5C(F)(F)F)c4n3)cc2)CC1` [compound 96], the half-maximal inhibitory concentration (IC50) on PAK4 (setting [1]) and against PAK1 (setting [1]) was below 1 µM throughout.

Consider `CN1CCN(c2ccc(Nc3ncc4ccc(=O)n(Cc5ccccc5OC(F)F)c4n3)cc2)CC1` [compound 98], for which the 50% inhibitory concentration (IC50) on PAK4 (setting [1]) and at PAK1 (setting [1]) was below 1 µM throughout.

Turning to `Cc1cc(F)ccc1Cn1c(=O)ccc2cnc(Nc3ccc(N4CCN(C)CC4)cc3)nc21` [compound 99], the IC50 against PAK4 (setting [1]) and at PAK1 (setting [1]) was 1 to 10 µM in each case.

For the compound `Cc1ccc(C)c(Cn2c(=O)ccc3cnc(Nc4ccc(N5CCN(C)CC5)cc4)nc32)c1` [compound 100], the IC50 against PAK4 (setting [1]) and against PAK1 (setting [1]) was 1 to 10 µM each time.
